Here are results for six compounds from US20180218112A1, “MOLECULAR BASED DECISION SUPPORT SYSTEM FOR CANCER TREATMENT” (priority 2014, published 2018).

The conditions of assay [1]: cited from earlier work; for P(Ω+|Λ+): probability the treatment works given the marker exists, from clinico-molecular studies.
The nature of assay [2]: Adjusted Efficiency Values (AEV), pooling/ranking algorithm and efficiency grades for patient X. Conditions: for subjOS: MPR·RS if MPR.QI=1 or MPR·NRS if MPR.QI=−1, table of three AEV by treatment name; for eff.OS: effOS=MPR·RS+(1−MPR)·NRS; for ART (pooled treatment group): sample-size weighted mean ART of the pooled treatments of the line, algorithm steps 1-6. The text has this: At each step, we also calculate AEG (Adjusted Efficiency Grades) with its standard-error:
AEG is a vector of grades such that to the higher AEV component the equivalent AEG component is 10 and to the lower AEV component the equivalent AEG component is 1.
At each step j, 1≤j≤k−2, we represent two successive “old” treatments (or treatment groups) which bear some different efficiency values in the j−1 step, in one “new” treatment efficiency vales in the j step. This representation is described below (we refer to it by noting that we “pull” treatments' efficiencies and represent it as a different efficiency value): • We are pooling (AEV(l(j−1))^(j−1), AEV(l(j−1)+1)^(j−1)) as if both treatments were a single treatment with an “average Adjusted Efficiency Value”: AEV(l(j−1))^(j−1)
We retain also initial AEG and final AEG (the last step which is “necessary”). But to finally give the Total Efficiency Score (TES) we use the AEG^(J):
TES=0.5×AEGART^(J)+0.45×AEGeffOS^(J)+0.05×AEGsubjOS^(J) which is a vector for k−J treatments groups.
The three AEV are finally: the RTD adjusted or ART=RTD·MPR, the effOS and a subjective OS (we choose explicitly in which group the patient is) i.e.
From RTD (table 2), MPR (table 4), RS and NRS (table 3) we get our three AEV by
ART=MPR·RTD; effOS=MPR·RS+(1−MPR)·NRS;
subjOS=MPR·RS if MPR·QI=1 or MPR·NRS if MPR·QI=−1.
The alternatives (designated here by their references) are ordered by ascending ART, and CLR are computed
The ART are projected on the grade interval (1,10) and we get:
After the 3 algorithms are done we can summarize 3 grades for each alternative and the final grade is the weighted mean of them (The weights are 0.5 for ART, 0.45 for effOS and 0.05 for subjOS when available)

The conditions of assay [3]: clinical trial study population, cited from earlier work; for CBR %: Clinical Benefit Rate (ORR+SD); for OS months: median overall survival; for RR %: response rate.
Assay [4] in a line: Efficacy estimators of treatment alternatives reported in clinical trial studies. It is filed as in vivo, patients. Conditions: for NRS: Non Response Survival, NRS=RS−RTD; for RS: Response Survival, RS=OS+(1−CBR)·RTD; for RTD* months: duration of clinical benefit, from TTP or PFS and graphical KM considerations. The source says: Usually, in oncological studies we distinguish three reactions to a treatment well defined as their proportions are called: […]
ORR (Objective Response Rate which includes Partial Response and Complete Response) based on a percentage reduction of the tumor, PD (Progressive Disease) based on a percentage increase of the tumor and SD (Stable Disease) in which there is neither sufficient shrinkage to qualify for response, nor sufficient increase to qualify for progression.
Their proportion equals to ORR+SD and is called CBR (Clinical Benefit Rate).
OS (Overall Survival) is the median time from the treatment to death/loss of follow up.
RS (Response Survival) is the median time from response to death/loss of follow up in the responders group.
NRS (Non Response Survival) is the median time from the treatment to death/loss of follow up in the non-responders group.
The PFS (Progression Free Survival) or TTP (Time To Progression) is the median time from the treatment to the progression of the disease.
In the best case the DCB (Duration of Clinical Benefit) is also reported, which is the PFS of the participants defined like CBR.

The nature of assay [5]: Molecular Prediction of Response (MPR) for patient X. Conditions: for CBR/P(Λ+): Bayesian estimation of P(Ω+|Λ+); for MPR: final Molecular Prediction of Response, patient X; for CBR + α · sd(CBR): heuristic estimate of P(Ω+|Λ+), MPR.QI=1. The source says: Now, the MPR (Molecular Prediction of Response) is based on molecular results of the tumor lab analysis like the following:
At first, we attribute to the patient a “qualitative MPR”: MPR·QI in {−1, 0, 1}
If we don't know about any molecular markers that can predict a clinical response, than: MPR·QI=0
If the molecular analysis predicts no clinical response: MPR·QI=−1, and if the molecular analysis predicts some clinical response (including stable disease) MPR·QI=1.
MPR·QI=−1=>we admit in a deterministic way that MPR=0+sd(CBR)
MPR·QI=1=>we distinguish 3 cases.
Λ−⇒Ω− (or Ω+⇒Λ+) • In the best case if the article gives P(Ω+|Λ+) we use it. • If we have relevant knowledge on P(Λ+) we use a Bayesian estimation
P(Ω+|Λ+)=CBR+α·sd(RR) (2.7)
where α=3 for chemotherapy treatments and 2 for biological treatments.
The molecular predictions of the subject with the appropriated efficacy estimators or prevalence estimator from clinico-molecular and epidemiologic studies give the whole information that we need to obtain the final MPR.

Where [6] appears, read: ART=MPR·RTD, table of three AEV by treatment name.
Setting [7] is: by treatment reference number, ordered ascending, algorithm steps 0-3.
Where [8] appears, read: table of three AEV by treatment name.

Regarding `CN(C)/N=N/c1[nH]cnc1C(N)=O` [Dacarbasine], the “P(Ω+|Λ+)” value in assay [1] is recorded as 44. The ART in assay [2] (setting [6]) was determined as 0.779. In assay [2], this compound came in with a subjOS of 4.011. The same compound gave an ART in assay [2] (setting [7]) of 0.836. The eff.OS in assay [2] (setting [8]) amounted to 6.4. The “ART (pooled treatment group)” value in assay [2] (listed as 2) came to 0.7858. In assay [3], the CBR % was 15%, the OS months is on record as 7.5 months and the RR % is reported as 3%. In addition, in assay [4], the NRS is 7.21 months, the RS is recorded as 9.12 months and the “RTD* months” value was 1.9 months. Moreover, in assay [5], the “CBR/P(Λ+)” value is recorded as 24.42, the MPR is listed as 44 and the “CBR + α · sd(CBR)” value is recorded as 23.66.

Regarding `Cc1nc2ccc(CN(C)c3ccc(C(=O)N[C@@H](CCC(=O)O)C(=O)O)s3)cc2c(=O)[nH]1` [Raltitrexed], the “P(Ω+|Λ+)” value in assay [1] is recorded as 50. Also, the subjOS in assay [2] stood at 3.841. The compound further returned an ART in assay [2] (setting [7]) of 2.4. For the same compound, in assay [2] (setting [8]), the eff.OS amounted to 6.288. In addition, in assay [2] (listed as 1, step 2, pooled treatments 3 and 1), the “ART (pooled treatment group)” value stood at 2.275. In addition, the “ART (pooled treatment group)” value in assay [2] (listed as 1, step 3, pooled treatments 3, 1 and 6) was 2.387. In assay [3], the CBR % is 15%, the OS months is recorded as 7.4 months and the RR % is 0%. Further, in assay [4], the NRS is recorded as 6.68 months, the RS is 11.48 months and the “RTD* months” value is 4.8 months. In assay [5], the “CBR/P(Λ+)” value was 31.01, the MPR is recorded as 50 and the “CBR + α · sd(CBR)” value was 30.97.

On to `O=C1NC(=O)[C@@H](c2cn3c4c(cccc24)CCC3)[C@@H]1c1c[nH]c2ccccc12` [Tivantinib], for which, in assay [4], the NRS is recorded as 5.99 months, the RS is 8.69 months and the “RTD* months” value is reported as 2.7 months.

For the compound `CO[C@H]1C[C@@H]2CC[C@@H](C)[C@@](O)(O2)C(=O)C(=O)N2CCCC[C@H]2C(=O)O[C@H]([C@H](C)C[C@@H]2CC[C@@H](OCCO)[C@H](OC)C2)CC(=O)[C@H](C)/C=C(\C)[C@@H](O)[C@@H](OC)C(=O)[C@H](C)C[C@H](C)/C=C/C=C/C=C/1C` [Everolimus], the ART in assay [2] (setting [6]) was found to be 2.4. Also, the subjOS in assay [2] came out at 9.077. This compound yielded an ART in assay [2] (setting [7]) of 0.971. In assay [2] (setting [8]), this compound displayed an eff.OS of 11.03. Also, in assay [3], the CBR % was 32.4%, the OS months is 5.9 months and the RR % is 0%. For the same compound, in assay [4], the NRS is 5.32 months, the RS is recorded as 7.12 months and the “RTD* months” value was 1.8 months. For the same compound, in assay [5], the “CBR/P(Λ+)” value was 53.97, the MPR is listed as 53.97 and the “CBR + α · sd(CBR)” value is 49.06.

With `CN(C)C/C=C/C(=O)Nc1cc2c(Nc3ccc(F)c(Cl)c3)ncnc2cc1O[C@H]1CCOC1` [Afatinib], in assay [4], the NRS is on record as 12.54 months, the RS is recorded as 16.07 months and the “RTD* months” value is 3.5 months.

Take `CNC(=O)c1cc(Oc2ccc(NC(=O)Nc3ccc(Cl)c(C(F)(F)F)c3)c(F)c2)ccn1` [Regorafenib]: the CBR in assay [1] (printed in column CBR + α · sd(CBR), MPR.QI=0) is 41 (CBR). Moreover, the ART in assay [2] (setting [6]) worked out at 0.971. This compound gave an ART in assay [2] (setting [7]) of 0.779. Also, the eff.OS in assay [2] (setting [8]) turned out to be 7.335. Moreover, the “ART (pooled treatment group)” value in assay [2] (listed as 4) turned out to be 0.7858. Further, in assay [3], the CBR % is 41%, the OS months was 6.4 months and the RR % is listed as 1%. In addition, in assay [4], the NRS was 5.62 months, the RS was 7.52 months and the “RTD* months” value was 1.9 months. For the same compound, in assay [5], the MPR is reported as 41.
